Results published in patent EP2197879B1, “C7-SUBSTITUTED CAMPTOTHECIN ANALOGS” (priority 2007, dated 2009).
Like-named read-outs stand apart in the source and are kept apart here. Each block holds one compound with its values, some of them ahead of it.

Legend:
[1] = tested on: A2780/WT (wild-type) cells; test: Sulforhodamine B (SRB) cytotoxicity assay in A2780/WT cells; assay type: cell-based
Procedure: (§1) Each of the testing conditions used in this study in both A2780/WT (wild-type) and A2780/DX5 cells were repeated in five to fifteen experiments that were performed on separate days. Each experiment consisted of one microtiter plate with at least eight individual assays of a given drug treatment condition on the plate. The sulforhodamine B (SRB) assay was used to assess cytotoxicity and absorbance at 570 nm (A570) in order to calculate the percentage of cell control (or percent cell survival) for the various treatment conditions in the plate wells.
(§2) Roswell Park Memorial Institute (RPMI 1640) medium, fetal bovine serum (FBS), and L-glutamine were purchased from Gibco BRL. Drugs were dissolved in sterile dimethylsulfoxide (DMSO), from American Type Culture Collection (ATCC) for stock solutions (2.5 to 5.0 mM). Subsequent dilutions were made using cell culture medium (prior to adding the drug to cells). SRB was purchased from Sigma and dissolved in 1.0 percent acetic acid. Trichloroacetic acid was purchased from VWR International.
(§3) Cells were manipulated in a Class IIA/B3 Biological Safety Cabinet (Forma Scientific) and maintained at 37°C in a humidified atmosphere containing 5% CO2 in a water-jacketed cell culture incubator (Forma Scientific). Cells were counted using a Coulter-Z1 counter (Beckman-Coulter). Following drug treatment, plates were washed using a Biomek 2000 station (Beckman) and, following exposure to SRB dye, plates were washed using an automated plate washer (Model EL404, Bio-Tek Instruments). Percentage of control was correlated to A570 values and determined using a Model EL800 plate reader (Bio-Tek Instruments).
(§4) Population doubling times for the two cell lines used in this study encompassed a total of five cell doublings corresponding to approximately 5 days for A2780/WT and A2780/DX5 cells. A2780/WT and A2780/DX5 cells were cultured in RPMI 1640 medium supplemented with 10% fetal bovine serum and 1 mM of L-glutamine. Both cell lines were maintained as monolayered cultures in T-25 or T-75 flasks and then seeded to microtiter plate wells for experiments described herein. Prior to SRB assays, cell viability was monitored by evaluation of microtiter plate wells. Dead cells detach and float while living cells remain attached to the bottom of the cell well.
(§5) The sulforhodamine B (SRB) cytotoxicity assay (see, Skehan P, et al., New colorimetric cytotoxicity assay for anticancer-drug screening. J. Natl. Cancer Inst. 82:1107-1112 (1990)) was used to determine the cytotoxic effects of BNP1350, SN-38, topotecan, 9-NH2-CPT, and 9-NO2-CPT on cell growth in vitro. Briefly, after the medium was aspirated from individual plate wells, trichloroacetic acid (100 µL of 10.0% solution) was added to each well, and the plates were incubated at 4°C for at least 1 hour. The plates were washed five-times with water using an automated microplate washer (Model EL 404, Bio-Tek Instruments), SRB solution (100 µL of 0.4 grams SRB dissolved in 100 mL 1.0 percent acetic acid) was added, and plates remained at room temperature for 15 minutes. The plates were then washed five-times using acetic acid (1.0%), air dried, and bound dye was solubilized in Tris base (150 µL, 10 mM). Plates were agitated (gently) for 5 minutes and the absorbance values of the SRB dye-protein adduct at a 570 nm wavelength (A570) were determined using an automated microtiter plate reader equipped with an A570 filter (Model EL800, BioTek Instruments). Table VII. Summary of Cytotoxicity Experiments in A2780/WT and DX5 Cells

[2] = tested on: A2780/DX5 cells; test: Sulforhodamine B (SRB) cytotoxicity assay in A2780/DX5 cells; assay type: cell-based; conditions: for IC50 Ratio: A2780/DX5 versus A2780/WT
Procedure: as §1, §2, §3, §4, §5

[3] = tested on: human plasma proteins
[4] = Homo sapiens, A2780, read-out: A2780/ WT (IC50)
[5] = 100 nM Compound Concentrations, 48 hours or longer at room temperature
[6] = Homo sapiens, SRB assay, A2780/DX5 cells, read-out: A2780/ DX5 (IC50)

SMILES: CC[C@@]1(O)C(=O)OCc2c1cc1n(c2=O)Cc2c-1nc1ccccc1c2CC[Si](C)(C)CCl [Compound 3, 11-(4S)-[2-(chloromethyldimethylsilanyl)-ethyl]-4-ethyl-4-hydroxy-1,12-dihydro-4H-2-oxa-6,12a-diaza-dibenzo[b,h]fluorene-3,13-dione]
IC50 [1, 4]: 0.01 µM
IC50 Ratio [2]: 1.45
IC50 ([2]; Homo sapiens, A2780, read-out: A2780/ DX5 (IC50)): 0.0145 µM
Percent of Free Camptothecin Analogs in Human Plasma [3, 5]: 1%

SMILES: CC[C@@]1(O)C(=O)OCc2c1cc1n(c2=O)Cc2c-1nc1ccccc1c2CC[Si](C)(C)COC(C)=O [Compound 6, acetic acid-(4S)-{[2-(4-ethyl-4-hydroxy-3,13-dioxo-3,4,12,13-tetrahydro-1H-2-oxa-6,12a-diaza-dibenzo[b,h]fluoren-11-yl)-ethyl]-dimethylsilanyl}-methyl ester]
IC50 ([1]; Homo sapiens, SRB assay, A2780/WT cells, read-out: A2780/ WT (IC50)): 0.0093 µM
IC50 Ratio [2]: 2.27
IC50 [2, 6]: 0.0211 µM
Percent of Free Camptothecin Analogs in Human Plasma ([3]; human, 100 nM): 5%

SMILES: CC[C@@]1(O)C(=O)OCc2c1cc1n(c2=O)Cc2c-1nc1ccccc1c2CC[Si](C)(C)CCCO [Compound 10, 4S-4-ethyl-4-hydroxy-11-{2-[(3-hydroxypropyl)-dimethylsilanyl]-ethyl}-1,12-dihydro-4H-2-oxa-6,12a-diaza-dibenzo[b,h]fluorene-3,13-dione]
IC50 ([1]; SRB assay, A2780/WT cells, read-out: A2780/ WT (IC50)): 0.0096 µM
IC50 Ratio [2]: 3.68
IC50 ([2]; SRB assay, A2780/DX5 cells, read-out: A2780/ DX5 (IC50)): 0.0353 µM
Percent of Free Camptothecin Analogs in Human Plasma [3, 5]: 3.4%

SMILES: CC[C@@]1(O)C(=O)OCc2c1cc1n(c2=O)Cc2c-1nc1ccccc1c2CC[Si](C)(C)Cn1cncn1 [Compound 30, (4S)-11-[2-(dimethyl-[1,2,4]triazol-1-ylmethylsilanyl)-ethyl]-4-ethyl-4-hydroxy-1,12-dihydro-4H-2-oxa-6,12a-diaza-dibenzo[b,h]fluorene-3,13-dione]
IC50 [1, 4]: 0.0077 µM
IC50 Ratio [2]: 7.8
IC50 [2, 6]: 0.0604 µM
Percent of Free Camptothecin Analogs in Human Plasma ([3]; human, 100 nM): 8%

SMILES: CCc1c2c(nc3ccccc13)-c1cc3c(c(=O)n1C2)COC(=O)[C@]3(O)CC [SN-22]
Percent of Free Camptothecin Analogs in Human Plasma [3, 5]: 1%

SMILES: CCc1c2c(nc3ccc(O)cc13)-c1cc3c(c(=O)n1C2)COC(=O)[C@]3(O)CC [SN-38, 10-hydroxy-7-ethyl camptothecin]
Percent of Free Camptothecin Analogs in Human Plasma [3, 5]: 15%

Percent of Free Camptothecin Analogs in Human Plasma [3, 5]: 100%
SMILES: CC[C@@]1(O)C(=O)OCc2c1cc1n(c2=O)Cc2cc3c(CN(C)C)c(O)ccc3nc2-1 [Topotecan, 9-dimethylaminomethyl-10-hydroxy camptothecin]
